From US20230137562A1, “TAU AGGREGATION INHIBITORS” (priority 2017, published 2023)
Ends that are not written are not given here. Peptide text beside a SMILES is read from it. TAMRA = tetramethyl rhodamine dye

Key:
Tau40P301L protein = target: T1, Tau40P301L protein (Homo sapiens, UniProt P10636, P618L); assay: biochemical; settings: IC50 (μM), Tau40 assay
T1 construct: His; made in house; host or cells: E. coli BL21
Method: The following describes the experimental method used to evaluate the IC50 of Tau amyloid inhibition by the peptide inhibitors described above. The physical setup of inhibitor peptides in these dose responses is done automatically with an 8-span head on a BioMek3000 liquid handler into Costar optically 96-well clear bottom black plates. Inhibitor peptides are kept frozen at −80° C. in 100% dimethylsulfoxide (DMSO) solution at a concentration of 20 mM and thawed immediately before the assay. The Biomek makes two serial dilutions of a single inhibitor for a duplicate 6-point dose response curve. This is followed by addition a 5×reaction buffer. The final reaction buffer concentration in the assay is 50 mM MES, pH 6.8, 125 mM NaCl, 10 μM Heparin, 50 μM ThT. The Tau substrate is added by a 96-head Multimek liquid handler making a 4:10 dilution of Tau40P301L protein to which DTT is added directly before setting up the assay. The P301 L mutant of tau is associated with features of human tauopathies (Comb et al., supra; Lewis et al., Nature Genetics 25: 402-405 (2000)). The final concentrations of Tau40P301L and DTT in the assay is 2.5 μM and 5 mM, respectively. Amyloid formation is measured by monitoring Thioflavin T (ThT) fluorescence every 10 minutes with excitation and emission wavelengths of 440 and 485 nm using fluorescence plate readers. The assay plates are kept in the plate reader during the whole duration of the assay, and incubated at 37° C. with continuous shaking for 24 hours. Plate reader models Genios and Spectrafluor Plus produced by Tecan are used and data is acquired using Magellan software. The calculation of IC50 is done by an automatic algorithm developed using the R statistical programing language. Briefly, the algorithm uses data exported in excel format from the plate reader to average the cumulative ThT fluorescence for each inhibitor concentration in the 6-point dose response. The IC50 is calculated as the midpoint of a sigmoid curve fitted to the correlation of normalized ThT fluorescence and inhibitor concentration.

Ac-VQIINK-NH2 = target: T2, Ac-VQIINK-NH2 (Homo sapiens, UniProt P10636); assay: Inhibition of VQIINK aggregation with peptide inhibitors (ThT); type: biochemical
T2 construct: made in house; host or cells: chemical peptide synthesis
Method: The following describes the experimental method used to evaluate the IC50 of aggregation of VQIINK (SEQ ID NO:220) inhibition by the peptide inhibitors described above. The peptide sequence comprising Ac-VQIINK-NH2 (C-terminal amidated (SEQ ID NO: 220)) is prepared using the peptide synthetic method described above. The Ac-VQIINK-NH2 (SEQ ID NO: 220) is stored at 10 mM in 100% DMSO at −80° C., and an aliquot volume sufficient for a single aggregation assay plate is removed. The stock aggregation buffer (5×) is prepared with the following: 250 mM NaPhosphate (pH 8.0), 125 mM KCl, and 500 micromolar ThioflavinT (ThT). The aggregation assay is conducted with shaking, at room temperature, on a plate reader model FLX-800 by BioTek. Water for primary Ac-VQIINK-NH2 (SEQ ID NO: 220) dissolution is cooled to 4 degrees Celsius (7.245 milliliters). Buffer is added from the 5×stock (40 microliters, final volume in assay plate is 130 microliters, final buffer concentrations 50 millimolar NaPO4 (pH 8.0); 25 milllimolar KCl; and 100 micromolar ThioflavinT). The assay plate is cooled to 4 degrees Celsius. The Ac-VQIINK-NH2 (105 microliters (SEQ ID NO: 220)) is added to the chilled water (final volume of 7.350 milliliters), this is added into a pooled reservoir, and using a 96-channel robotic pipettor, 70 microliters diluted Ac-VQIINK-NH2 (SEQ ID NO: 220) is added to the assay plate to achieve a final concentration of 50 micromolar in a 200 microliter final assay volume (per well). Data is acquired using Magellan software. The calculation of IC50 is done by an automatic algorithm developed using the R statistical programing language. Briefly, the algorithm uses data exported in excel format from the plate reader to average the cumulative ThT fluorescence for each inhibitor concentration in the 6-point dose response. The IC50 is calculated as the midpoint of a sigmoid curve fitted to the correlation of normalized ThT fluorescence and inhibitor concentration.

[1] = target: TauRD (P301S)-Nluc and TauRD (P301S)-Cluc split luciferase compliment pair (human, UniProt P10636-8 244-372; P10636-8 244-372); assay: cell-based or functional assay
His-Tau40P301L Tau = His-Tau40P301L Tau (UniProt P10636-8 1-441); assay: cell-based or functional assay
Chain of His-Tau40P301L Tau (P10636 other isoform, or with tags, fused parts or gaps limits assumed): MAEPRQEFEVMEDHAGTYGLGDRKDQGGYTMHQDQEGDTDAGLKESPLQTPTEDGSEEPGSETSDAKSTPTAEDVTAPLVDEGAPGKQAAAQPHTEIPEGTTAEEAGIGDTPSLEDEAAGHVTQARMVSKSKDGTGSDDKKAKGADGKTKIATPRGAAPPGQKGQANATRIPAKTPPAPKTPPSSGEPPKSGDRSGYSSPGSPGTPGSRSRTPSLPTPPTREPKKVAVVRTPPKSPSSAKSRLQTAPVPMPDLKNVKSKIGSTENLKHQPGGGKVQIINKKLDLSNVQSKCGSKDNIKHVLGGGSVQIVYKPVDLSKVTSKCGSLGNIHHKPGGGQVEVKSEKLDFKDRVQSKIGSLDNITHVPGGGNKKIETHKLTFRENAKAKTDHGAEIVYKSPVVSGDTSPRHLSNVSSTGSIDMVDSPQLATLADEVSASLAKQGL

Chain of TauRD (P301S)-Nluc and TauRD (P301S)-Cluc split luciferase compliment pair (P10636 561-689 P618S, chain 1 of 2): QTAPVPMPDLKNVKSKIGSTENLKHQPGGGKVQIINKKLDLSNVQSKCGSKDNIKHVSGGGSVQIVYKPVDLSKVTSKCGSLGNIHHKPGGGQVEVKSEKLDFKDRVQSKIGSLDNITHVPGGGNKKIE
Chain of TauRD (P301S)-Nluc and TauRD (P301S)-Cluc split luciferase compliment pair (P10636 561-689 P618S, chain 2 of 2): as the sequence (P10636 561-689 P618S, chain 1 of 2) above
T1 sequence (P10636 1-441 isoform P10636-8 P301L): as the sequence (P10636 other isoform, or with tags, fused parts or gaps limits assumed) above

Row | Molecule | IC50 (Tau40P301L protein) [µM] | IC50 (Ac-VQIINK-NH2) [µM] | also measured
1 | CC[C@H](C)[C@H](NC(=O)[C@@H](N)CCCNC(=N)N)C(=O)N[C@@H](CCCNC(=N)N)C(=O)N[C@@H](CC(C)C)C(=O)N[C@@H](Cc1c[nH]c2ccccc12)C(=O)N[C@@H](Cc1ccc(O)cc1)C(=O)N[C@@H](Cc1c[nH]c2ccccc12)C(=O)O [compound 60] (H-RIRLWYW-OH) | 8.01 |  | 
2 | CC[C@H](C)[C@H](NC(=O)[C@H](CCCNC(=N)N)NC(=O)[C@@H](NC(=O)[C@H](Cc1c[nH]c2ccccc12)NC(=O)[C@@H](N)Cc1c[nH]c2ccccc12)[C@@H](C)CC)C(=O)N[C@@H](CCCNC(=N)N)C(=O)N[C@@H](Cc1ccc(O)cc1)C(=O)N[C@@H](Cc1c[nH]c2ccccc12)C(=O)N[C@@H](CC(C)C)C(=O)O [compound 65] (H-WWIRIRYWL-OH) | 1.31 | 4.88 | 
3 | CC[C@H](C)[C@H](NC(=O)[C@H](CCCNC(=N)N)NC(=O)[C@@H](NC(=O)[C@@H](N)Cc1c[nH]c2ccccc12)[C@@H](C)CC)C(=O)N[C@@H](CCCNC(=N)N)C(=O)N[C@@H](Cc1ccc(O)cc1)C(=O)N[C@@H](Cc1c[nH]c2ccccc12)C(=O)O [compound 152] (H-WIRIRYW-OH) | 2.6 | 6.02 | 
4 | CC[C@H](C)[C@H](NC(=O)[C@H](Cc1c[nH]c2ccccc12)NC(=O)[C@@H](NC(=O)[C@H](CCCNC(=N)N)NC(=O)[C@@H](N)CC(C)C)[C@@H](C)CC)C(=O)N[C@@H](CCCNC(=N)N)C(=O)N[C@@H](Cc1ccc(O)cc1)C(=O)N[C@@H](CC(C)C)C(=O)O [compound 155] (H-LRIWIRYL-OH) |  | 1.74 | 
5 | CC[C@H](C)[C@H](NC(=O)[C@H](CCCNC(=N)N)NC(=O)[C@@H](N)Cc1c[nH]c2ccccc12)C(=O)N[C@@H](Cc1c[nH]c2ccccc12)C(=O)N[C@@H](C)C(=O)N[C@@H](CCCNC(=N)N)C(=O)N[C@@H](Cc1ccc(O)cc1)C(=O)N[C@@H](Cc1c[nH]c2ccccc12)C(=O)O [compound 163] (H-WRIWARYW-OH) | 2.95 |  | 
6 | CC[C@H](C)[C@H](N)C(=O)N[C@@H](Cc1c[nH]c2ccccc12)C(=O)N[C@H](C(=O)N[C@@H](CCCNC(=N)N)C(=O)N[C@@H](Cc1ccc(O)cc1)C(=O)N[C@@H](Cc1c[nH]c2ccccc12)C(=O)O)[C@@H](C)CC [compound 180] (H-IWIRYW-OH) |  | 5.43 | 
7 | CC[C@H](C)[C@H](NC(=O)[C@@H](N)CCCCN)C(=O)N[C@@H](CCCNC(=N)N)C(=O)N[C@@H](CC(C)C)C(=O)N[C@@H](Cc1ccc(O)cc1)C(=O)N[C@@H](Cc1c[nH]c2ccccc12)C(=O)N[C@@H](Cc1c[nH]c2ccccc12)C(=O)O [compound 194] (H-KIRLYWW-OH) |  | 2.86 | 
8 | CC[C@H](C)[C@H](NC(=O)[C@H](Cc1c[nH]c2ccccc12)NC(=O)[C@@H](NC(=O)[C@H](CCCNC(=N)N)NC(=O)[C@@H](N)Cc1c[nH]c2ccccc12)[C@@H](C)CC)C(=O)N[C@@H](CCCNC(=N)N)C(=O)N[C@@H](CC(C)C)C(=O)N[C@@H](Cc1c[nH]c2ccccc12)C(=O)O [compound 202] (H-WRIWIRLW-OH) |  | 3.97 | 
9 | {TAMRA}-RRRRRRRRRRGGSGGWRIWIRYW [[TAMRA]-RRRRRRRRRR-GGSGG-WRIWIRYW] |  |  | EC50 (µM), HEK cell assay, split luciferase complementation [1]: 4.1 µM; IC50 (µM), Tau40 assay-Modified peptides (ThT) (His-Tau40P301L Tau): 12.6 µM
10 | RRRRRRRRRGGSGGLFYLRLT [RRRRRRRRR-GGSGG-LFYLRLT] |  |  | EC50 (µM), HEK cell assay, split luciferase complementation [1]: 9.6 µM
11 | {TAMRA}-RRRRRRRRRGGSGGWRLKVRWW [[TAMRA]-RRRRRRRRR-GGSGG-WRLKVRWW] |  |  | EC50 (µM), HEK cell assay, split luciferase complementation [1]: 8.2 µM; IC50 (µM), Tau40 assay-Modified peptides (ThT) (His-Tau40P301L Tau): 7.3 µM
